From US6800482B2, “Cultured cells of Australian laurel, Pittosporaceae and a method for culturing tissues by using said cultured cells” (Hiroshima University, priority 2001, dated 2004)

Columns and labels:
Type in all cases: cell-based
[1] = tested on: cut pieces from the stem of Australian laurel, Pittosporaceae; test: Tissue culture of cut pieces in culture medium containing thidiazuron and naphthaleneacetic acid (Example 1, Table 1); conditions: for Numbers of cut pieces leading to stem or leaf/10 cut pieces: NAA 0 μM, WP culture medium, 6 weeks
Protocol: (§1) A WP culture medium or a MS culture medium was used as a fundamental culture medium. As a carbon source was used 1% sucrose, and 0.3% Gellan-Gum (Trade name) was used as a gelling agent. An Australian laurel, Pittosporaceae seed was treated with 70% ethanol for 1 hour with 2.5% sodium hypochlorite for 1 hour, and sterilized by washing it with sterilized water. After water was fed to the seed 2 night or more at 4° C. in dark, it was planted in the culture medium. After germination, a seedling of four weeks age was used for a tissue culturing. Cut pieces, 1 mm thick, were prepared from a leave, a stem and a roof of the living matter, and planted and cultured in the same culture medium as mentioned above but containing naphthaleneacetic acid and thidiazuron (TDZ) as a hormon. […] About 2 months after the planting, a shoot was cut out from the polyblast, and indoleacetic acid was applied to a cut portion of the shoot. The shoot treated with indoleacetic acid was inserted into a solid culture medium or a mixed soil of perlite and vermiculite containing a culture medium. The shoot was cultured and rooted.
Cut pieces from the stem was cultured in the WP culture medium added with thidiazuron and naphthaleneacetic acid for 6 weeks, and observation results thereof are shown in Table 1.

[2] = tested on: leaf of the Australian laurel, Pittosporaceae; test: Redifferentiation from the leaf in WP culture medium (Example 3, Table 2); conditions: NAA 0 μM, 22 to 28° C., bright place
Protocol: as §1
Redifferentiation from the leaf and the stem of the Australian laurel, Pittosporaceae was examined. The WP culture medium was used as a culture medium. A culturing temperature was set in a range of 22 to 28° C. The Australian laurel, Pittosporaceae was cultured in a bright place. […]

[3] = tested on: Embryo (text: stem) of the Australian laurel, Pittosporaceae; test: Redifferentiation, column Embryo, in WP culture medium (Example 3, Table 2); conditions: for Redifferentiation Embryo: NAA 0 μM, WP culture medium, 22 to 28° C., bright place
Protocol: as §1
Redifferentiation from the leaf and the stem of the Australian laurel, Pittosporaceae was examined. The WP culture medium was used as a culture medium. A culturing temperature was set in a range of 22 to 28° C. The Australian laurel, Pittosporaceae was cultured in a bright place. The planting condition and the other culturing conditions were the same as those in Example 1.

In the case of O=C(Nc1ccccc1)Nc1cnns1 [TDZ, thidiazuron], the “Numbers of cut pieces leading to stem or leaf/10 cut pieces” value ([1]; TDZ 0.1 μm) is reported as 0 /10 cut pieces, the “Numbers of cut pieces leading to stem or leaf/10 cut pieces” value ([1]; TDZ 10 μm) is reported as 0 /10 cut pieces and the Redifferentiation ([1]; concentration of thidiazuron not less than 10 μM, culture medium containing naphthaleneacetic acid) is reported as “redifferentiation was confirmed”. The “Redifferentiation Leaf” value ([2]; TDZ 10^4 nM) was 0%, the “Redifferentiation Leaf” value ([2]; TDZ 10^5 nM) was 0% and the “Redifferentiation Embryo” value ([3]; TDZ 10^4 nM) was 5.0%. For the same molecule, the “Redifferentiation Embryo” value ([3]; TDZ 10^5 nM) was 10.0% and the Redifferentiation percentages ([3]; cultures containing 10^4 to 10^5 nM thidiazuron) was “considerably high redifferentiation percentages”.
